ChEMBL document CHEMBL1130911 (Bioorg Med Chem Lett, 1998)
pIC50: −log10 of the molar value. Starred links: 1 amine or outer side, 2 acyl side, 3 side chain; linkers in the order of their positions; H or OH if unused. Non-standard residues stand in square brackets, D forms with d. Residues, ends and D or L forms follow the SMILES beside them. X1 = O=C([C@@]1(N[*:1])CCCC[C@@H]1O)[*:2]; X2 = O=C([C@@]1(N[*:1])CCCC[C@H]1O)[*:2]; X3 = O=C([C@@]1(N[*:1])CCC[C@@H]1O)[*:2]; X4 = O=C([C@]1(N[*:1])CCC[C@H]1O)[*:2]

Key:
[1] = target: Kappa-type opioid receptor (Rattus norvegicus, UniProt P34975); experiment: biochemical; format: cell-based, CHO
Chain of Kappa-type opioid receptor (P34975 whole entry): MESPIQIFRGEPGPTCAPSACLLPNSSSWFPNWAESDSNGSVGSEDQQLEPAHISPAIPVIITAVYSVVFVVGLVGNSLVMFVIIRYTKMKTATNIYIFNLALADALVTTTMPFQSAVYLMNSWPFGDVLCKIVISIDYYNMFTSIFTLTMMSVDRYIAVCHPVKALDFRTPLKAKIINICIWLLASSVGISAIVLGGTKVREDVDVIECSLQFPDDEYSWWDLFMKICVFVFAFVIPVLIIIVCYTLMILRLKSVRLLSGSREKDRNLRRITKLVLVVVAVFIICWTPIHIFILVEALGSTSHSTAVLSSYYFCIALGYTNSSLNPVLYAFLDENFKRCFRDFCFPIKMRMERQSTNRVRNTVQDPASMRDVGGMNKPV

Mu-type opioid receptor = Mu-type opioid receptor (Rattus norvegicus, UniProt P33535); experiment: biochemical; format: cell-based, CHO
Chain of Mu-type opioid receptor (P33535 whole entry): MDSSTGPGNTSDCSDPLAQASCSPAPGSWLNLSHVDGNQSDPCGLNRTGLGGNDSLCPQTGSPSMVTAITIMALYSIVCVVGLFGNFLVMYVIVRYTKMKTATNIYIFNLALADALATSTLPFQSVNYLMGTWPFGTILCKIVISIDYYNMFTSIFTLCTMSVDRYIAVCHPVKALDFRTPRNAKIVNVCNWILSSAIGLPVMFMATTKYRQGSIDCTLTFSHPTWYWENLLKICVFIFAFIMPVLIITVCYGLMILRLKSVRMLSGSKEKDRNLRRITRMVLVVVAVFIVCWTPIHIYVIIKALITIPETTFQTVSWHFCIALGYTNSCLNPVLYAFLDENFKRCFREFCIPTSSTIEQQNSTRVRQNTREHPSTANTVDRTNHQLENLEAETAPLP

[2] = target: T1, Delta-type opioid receptor (Rattus norvegicus, UniProt P33533); experiment: biochemical; format: cell-based, CHO
T1 sequence (P33533 whole entry): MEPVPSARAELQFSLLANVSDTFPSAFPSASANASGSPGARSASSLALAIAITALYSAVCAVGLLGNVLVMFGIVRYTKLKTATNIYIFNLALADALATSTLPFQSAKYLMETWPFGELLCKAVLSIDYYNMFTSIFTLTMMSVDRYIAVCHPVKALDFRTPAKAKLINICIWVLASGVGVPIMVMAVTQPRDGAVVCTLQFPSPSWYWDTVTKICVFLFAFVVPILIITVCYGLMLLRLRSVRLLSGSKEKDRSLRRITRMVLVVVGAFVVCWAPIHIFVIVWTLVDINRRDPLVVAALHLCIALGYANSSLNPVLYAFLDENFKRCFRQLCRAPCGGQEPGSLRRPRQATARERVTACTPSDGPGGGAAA
Description: Binding affinity against rat Opioid receptor delta 1 expressed in CHO cells determined by competitive inhibition of 1 nM [3H]DPDPE.

[3] = target: T1, Delta-type opioid receptor; experiment: Inhibitory activity against forskolin-stimulated cAMP production in chinese hamster ovary cells expressing Opioid receptor delta 1; format: functional, cell-based, CHO

Compound	pIC50 ([1]; cho)	pIC50 (Mu-type opioid receptor; cho)	pIC50 ([2]; cho)	pIC50 ([3]; cho)	pIC50 [1]	pIC50 (Mu-type opioid receptor)	pIC50 [2]	pIC50 [3]
CC(C)C[C@@H](NC(=O)[C@@H](Cc1ccccc1)NC(=O)CNC(=O)[C@@](C)(CO)NC(=O)[C@H](N)Cc1ccc(O)cc1)C(=O)O	< 5.00	8.20	9.40	10.15	–	–	–	–
CC(C)C[C@@H](NC(=O)[C@@H](Cc1ccccc1)NC(=O)CNC(=O)[C@](C)(CO)NC(=O)[C@H](N)Cc1ccc(O)cc1)C(=O)O	< 5.00	< 5.00	5.60	5.30	–	–	–	–
CC(C)C[C@H](NC(=O)[C@H](Cc1ccccc1)NC(=O)CNC(=O)[C@@]1(NC(=O)[C@@H](N)Cc2ccc(O)cc2)CCCC[C@@H]1O)C(=O)O (H-Y[X1]GFL-OH)	–	–	–	–	5.20	9.60	11.00	11.30
CC(C)C[C@H](NC(=O)[C@H](Cc1ccccc1)NC(=O)CNC(=O)[C@@]1(NC(=O)[C@@H](N)Cc2ccc(O)cc2)CCCC[C@H]1O)C(=O)O (H-Y[X2]GFL-OH)	–	–	–	–	< 5.00	7.30	9.00	8.70
CC(C)C[C@H](NC(=O)[C@H](Cc1ccccc1)NC(=O)CNC(=O)[C@@]1(NC(=O)[C@@H](N)Cc2ccc(O)cc2)CCC[C@@H]1O)C(=O)O (H-Y[X3]GFL-OH)	–	–	–	–	< 5.00	8.60	10.40	11.00
CC(C)C[C@H](NC(=O)[C@H](Cc1ccccc1)NC(=O)CNC(=O)[C@]1(NC(=O)[C@@H](N)Cc2ccc(O)cc2)CCC[C@H]1O)C(=O)O (H-Y[X4]GFL-OH)	–	–	–	–	< 5.00	6.49	–	8.00
CC(C)C[C@H](NC(=O)[C@H](Cc1ccccc1)NC(=O)CNC(=O)C(C)(C)NC(=O)[C@@H](N)Cc1ccc(O)cc1)C(=O)O (single isomer, unassigned)	–	–	–	–	< 5.00	6.80	7.30	6.85
